Target: human Nav1.8 (Homo sapiens (Human), UniProt Q9Y5Y9)
Experiment: Nav1.8 Qube automated patch-clamp assay
Type: cell-based
Details: Nav1.8 Qube Assay; human Nav1.8 channels stably expressed in HEK 293 cells
In short: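 Whole-cell automated patch clamp was run at room temperature on HEK293 cells stably expressing the channel. A 1 Hz, 10 s train of 20 ms pulses to 10 mV from −90 mV (repolarizing to −67 mV) was applied. Peak currents at the 1st and 10th pulses gave resting and inactivated-state IC50 values by Hill fit.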

Sequence of human Nav1.8 (Q9Y5Y9 whole entry): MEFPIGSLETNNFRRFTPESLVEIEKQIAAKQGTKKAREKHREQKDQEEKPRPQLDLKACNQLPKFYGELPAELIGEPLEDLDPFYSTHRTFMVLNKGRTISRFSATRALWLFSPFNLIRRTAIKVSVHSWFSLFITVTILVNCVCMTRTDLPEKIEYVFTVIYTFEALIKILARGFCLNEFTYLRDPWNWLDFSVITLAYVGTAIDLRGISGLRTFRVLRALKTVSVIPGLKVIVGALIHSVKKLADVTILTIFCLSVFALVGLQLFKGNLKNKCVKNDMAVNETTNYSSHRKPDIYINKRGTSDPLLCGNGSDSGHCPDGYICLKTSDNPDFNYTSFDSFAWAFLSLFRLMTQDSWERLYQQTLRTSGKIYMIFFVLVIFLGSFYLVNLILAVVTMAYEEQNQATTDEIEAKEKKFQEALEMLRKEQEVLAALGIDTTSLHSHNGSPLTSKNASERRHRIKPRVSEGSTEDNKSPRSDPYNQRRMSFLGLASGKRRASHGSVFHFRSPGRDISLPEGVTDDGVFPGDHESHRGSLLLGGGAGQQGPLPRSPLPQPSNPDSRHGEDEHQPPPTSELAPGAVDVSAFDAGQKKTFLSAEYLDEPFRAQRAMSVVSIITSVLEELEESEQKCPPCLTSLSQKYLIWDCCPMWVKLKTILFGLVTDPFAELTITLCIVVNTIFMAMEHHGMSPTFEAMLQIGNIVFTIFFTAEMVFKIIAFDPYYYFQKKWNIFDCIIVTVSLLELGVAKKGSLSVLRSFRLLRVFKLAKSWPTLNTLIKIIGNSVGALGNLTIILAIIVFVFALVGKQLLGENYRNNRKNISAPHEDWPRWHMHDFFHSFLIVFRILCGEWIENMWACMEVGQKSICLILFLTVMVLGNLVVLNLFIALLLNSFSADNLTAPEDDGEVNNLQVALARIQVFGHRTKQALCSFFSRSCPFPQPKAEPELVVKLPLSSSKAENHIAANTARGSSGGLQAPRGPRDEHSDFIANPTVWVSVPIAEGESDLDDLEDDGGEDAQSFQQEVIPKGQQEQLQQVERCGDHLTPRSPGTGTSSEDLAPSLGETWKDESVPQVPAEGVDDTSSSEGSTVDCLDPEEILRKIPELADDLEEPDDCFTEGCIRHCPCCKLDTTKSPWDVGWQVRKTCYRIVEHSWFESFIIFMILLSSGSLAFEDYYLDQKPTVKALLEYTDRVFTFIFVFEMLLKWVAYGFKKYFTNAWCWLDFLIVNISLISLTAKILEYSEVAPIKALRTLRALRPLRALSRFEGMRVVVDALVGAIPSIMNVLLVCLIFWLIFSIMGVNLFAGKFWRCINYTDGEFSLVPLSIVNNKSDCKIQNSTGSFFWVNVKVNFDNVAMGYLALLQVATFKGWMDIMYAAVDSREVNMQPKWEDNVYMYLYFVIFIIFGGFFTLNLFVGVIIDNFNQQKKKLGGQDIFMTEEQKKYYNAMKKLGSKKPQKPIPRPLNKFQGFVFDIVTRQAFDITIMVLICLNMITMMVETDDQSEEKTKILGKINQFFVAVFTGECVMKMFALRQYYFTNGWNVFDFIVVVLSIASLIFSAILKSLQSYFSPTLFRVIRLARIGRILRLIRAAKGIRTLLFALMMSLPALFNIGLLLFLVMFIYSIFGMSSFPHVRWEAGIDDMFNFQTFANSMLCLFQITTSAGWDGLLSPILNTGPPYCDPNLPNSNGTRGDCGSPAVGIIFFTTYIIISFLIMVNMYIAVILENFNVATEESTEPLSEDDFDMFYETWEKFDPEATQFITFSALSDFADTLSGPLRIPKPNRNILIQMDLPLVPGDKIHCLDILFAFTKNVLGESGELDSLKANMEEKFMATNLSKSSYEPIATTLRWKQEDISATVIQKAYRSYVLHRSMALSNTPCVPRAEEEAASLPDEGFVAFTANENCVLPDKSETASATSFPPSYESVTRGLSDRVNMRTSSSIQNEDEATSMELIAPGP

Row | SMILES | IC50 [nM]
1 | NS(=O)(=O)c1cccc(NC(=O)c2cc(OC(F)(F)F)cnc2N2CCCC(F)(F)CC2)c1 [Example 39, 2-(4,4-difluoroazepan-1-yl)-N-(3-sulfamoylphenyl)-5-(trifluoromethoxy)nicotinamide] | 2.5
2 | CC(C)(C)c1ccc(C(=O)Nc2cccc(S(N)(=O)=O)c2)c(N2CCCCC2)n1 [Example 42, 6-(tert-butyl)-2-(piperidin-1-yl)-N-(3-sulfamoylphenyl)nicotinamide] | 2680
3 | NS(=O)(=O)c1cccc(NC(=O)c2cc(C(F)(F)F)cnc2N2CCCCCC2)c1 [Example 44, 2-(azepan-1-yl)-N-(3-sulfamoylphenyl)-5-(trifluoromethyl)-pyridine-3-carboxamide] | 9.5
4 | CC1CCN(c2ncc(C(F)(F)F)cc2C(=O)Nc2cccc(S(N)(=O)=O)c2)CC(C)(C)C1 (stereo not drawn) [Example 47, N-(3-sulfamoylphenyl)-5-(trifluoromethyl)-2-(3,3,5-trimethylazepan-1-yl)pyridine-3-carboxamide] | 29
5 | COC(=O)C1CCCN(c2ncc(C(F)(F)F)cc2C(=O)Nc2cccc(S(N)(=O)=O)c2)CC1 (stereo not drawn) [Example 48, methyl 1-[3-[(3-sulfamoylphenyl)-carbamoyl]-5-(tri-fluoromethyl)-2-pyridyl]azepane-4-carboxylate] | 161
6 | NS(=O)(=O)c1cccc(NC(=O)c2cc(C(F)(F)F)cnc2N2CCC(C(F)F)CC2)c1 [Example 50, 2-[4-(difluoromethyl)-1-piperidyl]-N-(3-sulfamoylphenyl)-5-(trifluoromethyl)-pyridine-3-carboxamide] | 239
7 | NS(=O)(=O)c1cccc(NC(=O)c2cc(C(F)(F)F)cnc2N2CC3CCC(C2)O3)c1 [Example 52, 2-(8-oxa-3-azabicyclo[3.2.1]octan-3-yl)-N-(3-sulfamoyl-phenyl)-5-(trifluoro-methyl)pyridine-3-carboxamide] | 301
8 | NS(=O)(=O)c1cccc(NC(=O)c2cc(C(F)(F)F)cnc2N2CCc3scnc3C2)c1 [Example 55, 2-(6,7-dihydro-4H-thiazol[4,5-c]pyridin-5-yl)-N-(3-sulfamoyl-phenyl)-5-(trifluoro-methyl)pyridine-3-carboxamide] | 405
9 | NS(=O)(=O)c1cccc(NC(=O)c2cc(C(F)(F)F)cnc2N2CC3CCC(C2)O3)c1 [Example 57, 2-(8-oxa-3-azabicyclo[3.2.1]octan-3-yl)-N-(3-sulfamoyl-phenyl)-5-(trifluoro-methyl)pyridine-3-carboxamide] | 575
10 | NS(=O)(=O)c1cccc(NC(=O)c2cc(C(F)(F)F)cnc2N2CC3CCCC32)c1 (stereo not drawn) [Example 59, 2-(6-azabicyclo[3.2.0]heptan-6-yl)-N-(3-sulfamoyl-phenyl)-5-(trifluoro-methyl)pyridine-3-carboxamide] | 698
11 | NS(=O)(=O)c1cccc(NC(=O)c2cc(C(F)(F)F)cnc2N2CCCC2)c1 [Example 63, 2-pyrrolidin-1-yl-N-(3-sulfamoylphenyl)-5-(trifluoromethyl)pyridine-3-carboxamide] | 2000
12 | NS(=O)(=O)c1cccc(NC(=O)c2cc(C(F)(F)F)cnc2N2CC3COC(C3)C2)c1 (stereo not drawn) [Example 64, 2-(6-oxa-3-azabicyclo[3.2.1]octan-3-yl)-N-(3-sulfamoyl-phenyl)-5-(trifluoro-methyl)pyridine-3-carboxamide] | 2160
13 | COC1CCN(c2ncc(C(F)(F)F)cc2C(=O)Nc2cccc(S(N)(=O)=O)c2)CC1 [Example 66, 2-(4-methoxy-1-piperidyl)-N-(3-sulfamoylphenyl)-5-(trifluoromethyl) pyridine-3-carboxamide] | 2610
14 | COC(=O)C1CCCCN(c2ncc(C(F)(F)F)cc2C(=O)Nc2cccc(S(N)(=O)=O)c2)C1 (stereo not drawn) [Example 67, methyl 1-[3-[(3-sulfamoylphenyl)carbamoyl]-5-(trifluoro-methyl)-2-pyridyl]-azepane-3-carboxylate] | 2980
15 | CC(C)CC1CCCCCN1c1ncc(C(F)(F)F)cc1C(=O)Nc1cccc(S(N)(=O)=O)c1 (stereo not drawn) [Example 68, 2-(2-isobutylazepan-1-yl)-N-(3-sulfamoyl-phenyl)-5-(trifluoro-methyl)pyridine-3-carboxamide] | 3650
16 | NS(=O)(=O)c1cccc(NC(=O)c2cc(C(F)(F)F)cnc2N2CCOCC2)c1 [Example 69, 2-morpholino-N-(3-sulfamoylphenyl)-5-(trifluoromethyl) pyridine-3-carboxamide] | 4060
17 | COC(=O)N1CCN(c2ncc(C(F)(F)F)cc2C(=O)Nc2cccc(S(N)(=O)=O)c2)CC1 [Example 74, methyl 4-[3-[(3-sulfamoylphenyl)carbamoyl]-5-(trifluoro-methyl)-2-pyridyl]-piperazine-1-carboxylate] | 9970
18 | Cc1ccc(C(=O)Nc2cccc(C(N)=O)c2)c(N2CCCC(F)(F)CC2)n1 [Example 75, N-(3-carbamoylphenyl)-2-(4,4-difluoroazepan-1-yl)-6-methylnicotinamide] | 16

Second part, the compound after the results:

Row | IC50 [nM] | SMILES
19 | 279 | NC(=O)c1cccc(NC(=O)c2cc(Br)cnc2N2CCCCCC2)c1 [Example 38, 2-(azepan-1-yl)-5-bromo-N-(3-carbamoyl-phenyl)pyridine-3-carboxamide]
20 | 1180 | CC(C)(C)c1nc(N2CCCCC2)c(C(=O)Nc2cccc(S(N)(=O)=O)c2)cc1Cl [Example 40, 6-(tert-butyl)-5-chloro-2-(piperidin-1-yl)-N-(3-sulfamoylphenyl)nicotinamide]
21 | 4630 | CC(C)(C)c1ccc(C(=O)Nc2cccc(S(C)(=O)=O)c2)c(N2CCCCC2)n1 [Example 41, 6-tert-butyl-N-(3-methylsulfonylphenyl)-2-(1-piperidyl)pyridine-3-carboxamide]
22 | 57 | NS(=O)(=O)c1cccc(NC(=O)c2cc(C(F)(F)F)cnc2N2CCC3(CC2)CC3)c1 [Example 43, 2-(6-azaspiro[2.5]octan-6-yl)-N-(3-sulfamoylphenyl)-5-(trifluoromethyl)nicotinamide]
23 | 12 | NS(=O)(=O)c1cccc(NC(=O)c2cc(C(F)(F)F)cnc2N2CC3CC4CC(C3)CC2C4)c1 [Example 46, N-(3-sulfamoylphenyl)-2-(4-azatricyclo-[4.3.1.13,8]undecan-4-yl)-5-(trifluoromethyl)-nicotinamide]
24 | 186 | COC1CCCN(c2ncc(C(F)(F)F)cc2C(=O)Nc2cccc(S(N)(=O)=O)c2)CC1 (stereo not drawn) [Example 49, 2-(4-methoxyazepan-1-yl)-N-(3-sulfamoyl-phenyl)-5-(trifluoro-methyl)pyridine-3-carboxamide]
25 | 244 | NS(=O)(=O)c1cccc(NC(=O)c2cc(C(F)(F)F)cnc2N2CCCC(F)(F)C2)c1 [Example 51, 2-(3,3-difluoro-1-piperidyl)-N-(3-sulfamoylphenyl)-5-(trifluoromethyl)-pyridine-3-carboxamide]
26 | 304 | CC1(O)CCCN(c2ncc(C(F)(F)F)cc2C(=O)Nc2cccc(S(N)(=O)=O)c2)CC1 (stereo not drawn) [Example 53, 2-(4-hydroxy-4-methyl-azepan-1-yl)-N-(3-sulfamoylphenyl)-5-(trifluoromethyl)-pyridine-3-carboxamide]
27 | 338 | NS(=O)(=O)c1cccc(NC(=O)c2cc(C(F)(F)F)cnc2N2CCCC[C@H](F)C2)c1 [Example 54, 2-[(3S)-3-fluoroazepan-1-yl]-N-(3-sulfamoyl-phenyl)-5-(trifluoro-methyl)pyridine-3-carboxamide]
28 | 448 | NS(=O)(=O)c1cccc(NC(=O)c2cc(C(F)(F)F)cnc2N2CCCOCC2)c1 [Example 56, 2-(1,4-oxazepan-4-yl)-N-(3-sulfamoylphenyl)-5-(trifluoromethyl)-pyridine-3-carboxamide]
29 | 616 | NS(=O)(=O)c1cccc(NC(=O)c2cc(C(F)(F)F)cnc2N2CC(C(F)(F)F)C2)c1 [Example 58, N-(3-sulfamoylphenyl)-5-(trifluoromethyl)-2-[3-(trifluoromethyl)-azetidin-1-yl]pyridine-3-carboxamide]
30 | 737 | NS(=O)(=O)c1cccc(NC(=O)c2cc(C(F)(F)F)cnc2N2CCC(F)(F)C2)c1 [Example 60, 2-(3,3-difluoropyrrolidin-1-yl)-N-(3-sulfamoyl-phenyl)-5-(trifluoromethyl) pyridine-3-carboxamide]
31 | 1620 | COC(=O)C1CCN(c2ncc(C(F)(F)F)cc2C(=O)Nc2cccc(S(N)(=O)=O)c2)CC1 [Example 61, methyl 1-[3-[(3-sulfamoylphenyl)carbamoyl]-5-(trifluoro-methyl)-2-pyridyl]-piperidine-4-carboxylate]
32 | 1830 | NS(=O)(=O)c1cccc(NC(=O)c2cc(C(F)(F)F)cnc2N2CCC(F)C2)c1 (stereo not drawn) [Example 62, 2-(3-fluoropyrrolidin-1-yl)-N-(3-sulfamoyl-phenyl)-5-(trifluoro-methyl)pyridine-3-carboxamide]
33 | 2210 | NS(=O)(=O)c1cccc(NC(=O)c2cc(C(F)(F)F)cnc2N2CCCC(O)CC2)c1 (stereo not drawn) [Example 65, 2-(4-hydroxyazepan-1-yl)-N-(3-sulfamoyl-phenyl)-5-(trifluoro-methyl)pyridine-3-carboxamide]
34 | 5480 | NS(=O)(=O)c1cccc(NC(=O)c2cc(C(F)(F)F)cnc2N2CCS(=O)(=O)CC2)c1 [Example 70, 2-(1,1-dioxo-1,4-thiazinan-4-yl)-N-(3-sulfamoylphenyl)-5-(trifluoromethyl)pyridine-3-carboxamide]
35 | 6610 | NS(=O)(=O)c1cccc(NC(=O)c2cc(C(F)(F)F)cnc2N2CCC3(CCCO3)CC2)c1 [Example 72, 2-(1-oxa-8-azaspiro[4.5]decan-8-yl)-N-(3-sulfamoyl-phenyl)-5-(trifluoro-methyl)pyridine-3-carboxamide]
36 | 8390 | Cc1nc2c(o1)CCN(c1ncc(C(F)(F)F)cc1C(=O)Nc1cccc(S(N)(=O)=O)c1)C2 [Example 73, 2-(2-methyl-6,7-dihydro-4H-oxazolo[4,5-c]pyridin-5-yl)-N-(3-sulfamoyl-phenyl)-5-(trifluoro-methyl)pyridine-3-carboxamide]

From US12344595B2, “2-amino-n-phenyl-nicotinamides as NAV1.8 inhibitors” (Merck Sharp & Dohme LLC, priority 2018, dated 2025)
